{"source": "ChEMBL document CHEMBL1201862", "about": "“PubChem BioAssay data set” (2004)", "key": {"[1]": {"biological_target": "T1, Heat shock factor protein 1 (Mus musculus, UniProt P38532)", "T1 sequence (P38532 whole entry)": "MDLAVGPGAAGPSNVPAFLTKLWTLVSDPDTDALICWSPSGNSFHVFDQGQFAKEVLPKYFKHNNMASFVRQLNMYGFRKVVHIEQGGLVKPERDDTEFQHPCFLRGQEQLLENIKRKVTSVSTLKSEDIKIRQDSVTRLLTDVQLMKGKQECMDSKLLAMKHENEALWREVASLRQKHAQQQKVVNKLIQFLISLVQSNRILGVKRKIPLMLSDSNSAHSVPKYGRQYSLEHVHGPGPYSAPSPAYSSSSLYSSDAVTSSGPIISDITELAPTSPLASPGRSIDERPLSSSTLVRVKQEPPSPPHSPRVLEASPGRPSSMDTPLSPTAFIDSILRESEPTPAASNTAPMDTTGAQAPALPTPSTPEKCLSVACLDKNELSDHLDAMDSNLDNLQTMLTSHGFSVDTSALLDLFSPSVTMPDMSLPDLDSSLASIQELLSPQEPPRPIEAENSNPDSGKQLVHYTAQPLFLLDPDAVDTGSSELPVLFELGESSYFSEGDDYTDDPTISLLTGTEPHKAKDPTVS", "assay": "inhibition of MG132-induced HSE-luciferase signal, confirmation, cell-based, NIH3T3, luminescence, dose retest (AID 2382);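 note: NIH3T3 fibroblasts with HSF1-driven luciferase reporter stressed by proteasome inhibitor MG132; luminescence from HSF1-driven luciferase expression after 8 hours of MG132 stress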", "type": "functional"}, "[2]": {"biological_target": "Luciferin 4-monooxygenase (Photinus pyralis, UniProt P08659)", "sequence (P08659 whole entry)": "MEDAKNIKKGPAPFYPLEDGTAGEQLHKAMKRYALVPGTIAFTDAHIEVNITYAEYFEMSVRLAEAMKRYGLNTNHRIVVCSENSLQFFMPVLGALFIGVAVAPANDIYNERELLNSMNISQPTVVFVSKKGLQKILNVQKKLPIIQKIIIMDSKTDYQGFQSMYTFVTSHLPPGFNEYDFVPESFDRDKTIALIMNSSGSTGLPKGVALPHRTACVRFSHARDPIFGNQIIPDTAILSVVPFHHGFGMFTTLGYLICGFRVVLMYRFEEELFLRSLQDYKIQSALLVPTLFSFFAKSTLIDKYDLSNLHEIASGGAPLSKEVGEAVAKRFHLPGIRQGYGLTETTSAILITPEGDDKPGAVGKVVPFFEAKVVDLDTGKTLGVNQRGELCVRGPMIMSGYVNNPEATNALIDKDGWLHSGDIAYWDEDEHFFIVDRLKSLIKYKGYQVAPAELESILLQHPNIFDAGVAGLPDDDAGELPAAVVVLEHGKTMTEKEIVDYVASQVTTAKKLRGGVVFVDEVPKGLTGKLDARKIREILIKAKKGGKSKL", "assay": "firefly luciferase enzyme inhibitors, dose response, biochemical, luminescence (AID 1891)"}, "[3]": {"assay": "Luminescence Cell-Based Dose Confirmation HTS to Identify Inhibitors of Platelet Dense Granule Release. [Related pubchem assays: 1663 (Primary HTS), 1678 (Summary of Project)]", "type": "functional"}, "[4]": {"system": "Streptococcus sp. 'group A'", "assay": "growth inhibition of control SK(-) GAS strain, dose response, counter-screen for streptokinase expression inhibitor project, luminescence, kanamycin, BacTiterGlo, confirmation (AID 1900)", "type": "functional, organism-based"}, "[5]": {"biological_target": "T2, Streptokinase A (Streptococcus pyogenes serotype M1, UniProt P10520)", "T2 sequence (P10520 whole entry)": "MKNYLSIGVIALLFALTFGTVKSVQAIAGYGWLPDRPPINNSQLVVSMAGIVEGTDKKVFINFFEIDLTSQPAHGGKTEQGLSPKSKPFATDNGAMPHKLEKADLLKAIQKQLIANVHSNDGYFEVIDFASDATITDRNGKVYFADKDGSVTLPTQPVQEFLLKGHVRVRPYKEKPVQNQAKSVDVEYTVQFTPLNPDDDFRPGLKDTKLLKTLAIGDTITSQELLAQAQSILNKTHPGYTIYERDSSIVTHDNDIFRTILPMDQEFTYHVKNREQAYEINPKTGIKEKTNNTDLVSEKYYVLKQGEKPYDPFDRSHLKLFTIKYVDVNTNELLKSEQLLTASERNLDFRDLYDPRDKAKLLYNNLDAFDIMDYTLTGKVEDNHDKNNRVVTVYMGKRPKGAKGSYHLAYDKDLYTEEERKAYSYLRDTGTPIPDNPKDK", "assay": "S. pyogenes streptokinase expression inhibitors, potency, dose response, plasminogen activation absorbance, OD405 (AID 1914);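 note: secreted streptokinase activity via plasminogen activation per viability signal from cell pellet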", "type": "functional, Streptococcus pyogenes M1 GAS"}, "[6]": {"system": "Streptococcus", "assay": "Group A Streptococcus viability loss, dose response, counter-screen for streptokinase expression inhibitor project, luminescence, BacTiterGlo (AID 1915);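 note: potency for reduction of bacterial viability or growth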", "type": "functional, organism-based"}, "[7]": {"assay": "growth suppression of beta-catenin-knockout colon cells, dose response, cell-based, HCT116, human colon tumor (AID 1045);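 note: HCT116 colon tumor cells with beta catenin knocked out; cells exposed to compound for 60 hours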", "type": "functional"}, "[8]": {"biological_target": "T3, Zinc finger protein mex-5 (Caenorhabditis elegans, UniProt Q9XUB2)", "T3 sequence (Q9XUB2 whole entry)": "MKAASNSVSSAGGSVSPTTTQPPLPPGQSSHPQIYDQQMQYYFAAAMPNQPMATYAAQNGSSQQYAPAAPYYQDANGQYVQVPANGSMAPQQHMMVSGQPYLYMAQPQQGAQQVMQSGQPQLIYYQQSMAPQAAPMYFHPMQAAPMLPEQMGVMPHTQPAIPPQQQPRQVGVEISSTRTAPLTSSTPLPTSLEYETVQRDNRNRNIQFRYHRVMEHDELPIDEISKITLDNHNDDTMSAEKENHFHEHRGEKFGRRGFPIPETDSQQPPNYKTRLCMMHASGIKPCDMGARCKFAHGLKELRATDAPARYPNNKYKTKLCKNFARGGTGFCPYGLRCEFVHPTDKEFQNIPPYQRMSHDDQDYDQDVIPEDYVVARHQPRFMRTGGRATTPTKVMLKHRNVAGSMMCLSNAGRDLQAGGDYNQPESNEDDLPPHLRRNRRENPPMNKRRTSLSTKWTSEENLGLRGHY", "assay": "MEX-5/TCR-2 RNA interaction inhibitors, dose response, biochemical, C. elegans, fluorescence polarization (AID 1960)"}, "[9]": {"assay": "growth suppression of PTEN-null colon cells, dose response, cell-based, HCT116 PTEN knockout (AID 1047);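 note: HCT116 colon tumor cells with PTEN knocked out; cells exposed to compound for 60 hours before readout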", "type": "functional"}, "[10]": {"biological_target": "T4, RNA-binding protein pos-1 (Caenorhabditis elegans, UniProt G5EF15)", "T4 sequence (G5EF15 whole entry)": "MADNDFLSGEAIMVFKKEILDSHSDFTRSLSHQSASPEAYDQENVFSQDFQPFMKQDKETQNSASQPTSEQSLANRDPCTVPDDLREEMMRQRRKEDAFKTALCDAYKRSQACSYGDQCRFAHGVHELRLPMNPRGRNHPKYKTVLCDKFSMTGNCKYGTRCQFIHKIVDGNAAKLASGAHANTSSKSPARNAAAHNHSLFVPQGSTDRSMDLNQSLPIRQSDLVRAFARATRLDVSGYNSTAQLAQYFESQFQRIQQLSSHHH", "assay": "inhibitors of POS-1/mex-3 RNA binding, dose response, biochemical, fluorescence polarization (AID 1964);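 note: purified POS-1 fused to maltose binding protein made in E. coli; potency of compounds blocking POS-1 binding to fluorescent RNA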"}, "[11]": {"biological_target": "T5, Calpain-2 catalytic subunit (Sus scrofa, UniProt P43367)", "T5 sequence (P43367 whole entry)": "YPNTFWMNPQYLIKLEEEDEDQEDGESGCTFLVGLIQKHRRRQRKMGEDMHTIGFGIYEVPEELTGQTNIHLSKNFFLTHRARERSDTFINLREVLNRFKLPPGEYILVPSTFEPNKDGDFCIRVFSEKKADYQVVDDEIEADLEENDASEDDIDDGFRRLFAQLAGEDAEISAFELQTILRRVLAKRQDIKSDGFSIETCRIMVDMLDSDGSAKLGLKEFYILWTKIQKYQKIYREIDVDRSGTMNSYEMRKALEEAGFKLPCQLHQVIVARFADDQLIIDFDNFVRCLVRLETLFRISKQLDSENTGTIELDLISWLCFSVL", "assay": "pig calpain II inhibitor potency, dose response, biochemical, fluorogenic peptide substrate (AID 1420)", "type": "functional"}, "[12]": {"biological_target": "T6, Fatty acid synthase (Homo sapiens, UniProt P49327)", "T6 sequence (P49327 whole entry, the tested form may be a part)": "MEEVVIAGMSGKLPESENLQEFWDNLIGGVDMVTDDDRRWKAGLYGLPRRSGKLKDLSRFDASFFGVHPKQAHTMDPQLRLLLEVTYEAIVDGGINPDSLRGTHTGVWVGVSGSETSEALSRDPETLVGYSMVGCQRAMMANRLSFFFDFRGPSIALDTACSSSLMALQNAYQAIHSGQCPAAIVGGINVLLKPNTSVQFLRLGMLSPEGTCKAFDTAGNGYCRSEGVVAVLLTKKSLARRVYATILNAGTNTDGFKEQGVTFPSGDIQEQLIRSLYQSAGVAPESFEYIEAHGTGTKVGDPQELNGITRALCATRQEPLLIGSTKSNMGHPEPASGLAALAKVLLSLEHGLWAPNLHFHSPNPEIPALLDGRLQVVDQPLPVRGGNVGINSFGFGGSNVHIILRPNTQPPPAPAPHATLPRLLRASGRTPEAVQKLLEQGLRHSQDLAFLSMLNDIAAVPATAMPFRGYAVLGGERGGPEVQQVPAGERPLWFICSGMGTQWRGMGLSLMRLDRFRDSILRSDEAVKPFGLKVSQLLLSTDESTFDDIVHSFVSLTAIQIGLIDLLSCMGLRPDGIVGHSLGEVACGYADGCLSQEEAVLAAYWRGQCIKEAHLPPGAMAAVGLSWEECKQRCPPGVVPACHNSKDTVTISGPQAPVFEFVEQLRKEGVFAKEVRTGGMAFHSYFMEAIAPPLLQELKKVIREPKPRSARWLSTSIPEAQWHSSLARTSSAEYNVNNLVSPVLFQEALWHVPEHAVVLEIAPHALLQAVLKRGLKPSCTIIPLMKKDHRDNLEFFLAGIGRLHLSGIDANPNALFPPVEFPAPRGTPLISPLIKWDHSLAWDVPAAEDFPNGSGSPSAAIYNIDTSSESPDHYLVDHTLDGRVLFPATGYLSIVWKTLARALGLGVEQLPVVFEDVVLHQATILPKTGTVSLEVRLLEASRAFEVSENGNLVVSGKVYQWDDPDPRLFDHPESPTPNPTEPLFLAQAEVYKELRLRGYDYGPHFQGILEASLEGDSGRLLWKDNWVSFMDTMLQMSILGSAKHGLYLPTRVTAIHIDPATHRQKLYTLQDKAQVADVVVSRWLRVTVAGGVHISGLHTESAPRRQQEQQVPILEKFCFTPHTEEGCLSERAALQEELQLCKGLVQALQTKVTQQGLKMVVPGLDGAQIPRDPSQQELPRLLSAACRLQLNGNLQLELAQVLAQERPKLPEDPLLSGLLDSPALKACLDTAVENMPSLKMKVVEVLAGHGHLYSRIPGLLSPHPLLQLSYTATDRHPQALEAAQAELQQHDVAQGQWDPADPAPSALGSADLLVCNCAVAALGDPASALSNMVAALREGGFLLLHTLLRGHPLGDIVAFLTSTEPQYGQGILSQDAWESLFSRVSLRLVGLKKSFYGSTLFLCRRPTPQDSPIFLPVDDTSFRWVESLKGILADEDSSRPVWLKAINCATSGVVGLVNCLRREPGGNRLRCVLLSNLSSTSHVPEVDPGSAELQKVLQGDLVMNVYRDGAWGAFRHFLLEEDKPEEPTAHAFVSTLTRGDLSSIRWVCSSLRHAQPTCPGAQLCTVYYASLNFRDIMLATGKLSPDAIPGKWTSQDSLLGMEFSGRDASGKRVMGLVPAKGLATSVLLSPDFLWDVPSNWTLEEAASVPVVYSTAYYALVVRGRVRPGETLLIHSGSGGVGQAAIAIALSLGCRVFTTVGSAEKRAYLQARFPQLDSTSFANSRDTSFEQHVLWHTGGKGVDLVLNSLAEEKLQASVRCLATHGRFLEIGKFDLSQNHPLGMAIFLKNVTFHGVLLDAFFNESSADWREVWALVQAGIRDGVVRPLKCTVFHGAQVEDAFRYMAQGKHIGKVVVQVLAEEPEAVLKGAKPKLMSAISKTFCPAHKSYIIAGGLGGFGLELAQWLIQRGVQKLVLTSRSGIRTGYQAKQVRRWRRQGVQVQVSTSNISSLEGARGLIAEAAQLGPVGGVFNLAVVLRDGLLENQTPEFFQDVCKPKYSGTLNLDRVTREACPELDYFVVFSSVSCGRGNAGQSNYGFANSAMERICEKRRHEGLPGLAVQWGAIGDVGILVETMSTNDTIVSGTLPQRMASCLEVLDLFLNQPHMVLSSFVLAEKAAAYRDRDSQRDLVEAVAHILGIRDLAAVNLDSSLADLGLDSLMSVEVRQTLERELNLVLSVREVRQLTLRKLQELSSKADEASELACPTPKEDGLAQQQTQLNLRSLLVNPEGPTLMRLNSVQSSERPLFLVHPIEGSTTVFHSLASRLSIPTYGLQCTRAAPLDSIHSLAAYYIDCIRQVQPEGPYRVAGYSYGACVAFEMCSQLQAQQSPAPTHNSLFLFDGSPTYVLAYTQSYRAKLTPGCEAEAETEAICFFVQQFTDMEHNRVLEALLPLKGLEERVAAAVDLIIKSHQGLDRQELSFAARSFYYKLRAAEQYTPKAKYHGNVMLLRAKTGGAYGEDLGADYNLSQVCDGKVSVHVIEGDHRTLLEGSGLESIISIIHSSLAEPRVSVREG", "assay": "FAS thioesterase domain inhibitors, dose response, biochemical, endpoint fluorescence intensity, uHTS hits (AID 624327);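 note: fluorescence from hydrolysis of an O-methyl fluorescein acyl ester substrate by the enzyme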", "type": "functional"}, "[13]": {"biological_target": "T6, Fatty acid synthase", "assay": "FAS thioesterase domain inhibitors, dose response, biochemical, kinetic fluorescence intensity (AID 624326);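 note: rate of fluorescence rise from hydrolysis of a fluorogenic O-methyl fluorescein ester substrate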", "type": "functional"}}, "note": "Calls of active or inactive are those of the source. Cut-off read from the data, not from the text of the source, for most assays here: actives have a measured EC50 and inactives only a lower limit."}
{"smiles": "CCCNC(=O)N1CCCC(C(=O)c2cccc(Cl)c2)C1", "note": "(centres undefined)", "values": [{"measurement": "EC50", "setting": "[1]", "result": "> 195 µM (not active)"}]}
{"smiles": "Cc1cc(=O)oc2cc(OCCSCCN3CCCC3)ccc12", "values": [{"measurement": "EC50", "setting": "[2]", "result": "> 112 µM (not active)"}, {"measurement": "EC50", "setting": "[3]", "result": "> 112 µM (not active)"}]}
{"smiles": "CCOc1ccc(NC(=O)c2ccc3c(=O)n(-c4ccc(OC)cc4OC)c(=S)[nH]c3c2)cc1", "values": [{"measurement": "EC50", "setting": "[4]", "result": "7.86 µM (active)"}, {"measurement": "EC50", "setting": "[5]", "result": "> 150 µM (not active)"}, {"measurement": "EC50", "setting": "[6]", "result": "12.4 µM (active)"}, {"measurement": "EC50", "setting": "[1]", "result": "> 195 µM (not active)"}]}
{"smiles": "CN(C(=O)COC(=O)c1cc(O)nc2ccccc12)c1c(N)n(Cc2ccccc2)c(=O)[nH]c1=O", "values": [{"measurement": "EC50", "setting": "[1]", "result": "> 195 µM (not active)"}]}
{"smiles": "CCN1C(=O)C(CC(=O)Nc2ccc(OC)cc2)N(Cc2ccc3c(c2)OCO3)C1=S", "note": "(centres undefined)", "values": [{"measurement": "EC50", "setting": "[1]", "result": "> 195 µM (not active)"}]}
{"smiles": "Cn1cccc1/C=C1\\C(=O)NC(=O)N(CCC2=CCCCC2)C1=O", "values": [{"measurement": "EC50", "setting": "[7]", "result": "82.1 µM (active)"}, {"measurement": "EC50", "setting": "[8]", "result": "35.6 µM (inconclusive)"}, {"measurement": "EC50", "setting": "[9]", "result": "67.2 µM (active)"}, {"measurement": "EC50", "setting": "[10]", "result": "230 µM (inconclusive)"}]}
{"smiles": "O=C(COC(=O)C1CCCCC1)Nc1cc([N+](=O)[O-])ccc1F", "values": [{"measurement": "IC50", "setting": "[11]", "result": "> 50 µM (not active)"}, {"measurement": "IC50", "setting": "[12]", "result": "7.45 µM (active)"}, {"measurement": "IC50", "setting": "[13]", "result": "8.3 µM (active)"}]}
{"smiles": "CCOC(=O)c1cc2c(=O)n3cccc(C)c3nc2n(C)c1=N", "values": [{"measurement": "EC50", "setting": "[7]", "result": "4.97 µM (active)"}, {"measurement": "EC50", "setting": "[9]", "result": "6.72 µM (active)"}]}
{"smiles": "CC(=O)c1cccc(-c2ccnc3c2CC(C(=O)Nc2ccc(C(C)C)cc2)O3)c1", "note": "(centres undefined)", "values": [{"measurement": "IC50", "setting": "[12]", "result": "10.8 µM (active)"}, {"measurement": "IC50", "setting": "[13]", "result": "6.77 µM (active)"}]}
{"smiles": "CCOc1ccccc1NC(=O)COC(=O)Cc1cccs1", "values": [{"measurement": "EC50", "setting": "[2]", "result": "> 112 µM (not active)"}, {"measurement": "EC50", "setting": "[3]", "result": "> 112 µM (not active)"}]}
{"smiles": "O=C(CSc1ncnc2c1nnn2Cc1ccccc1)NC1CCCCC1", "values": [{"measurement": "IC50", "setting": "[12]", "result": "24.3 µM (inactive)"}, {"measurement": "IC50", "setting": "[13]", "result": "23.6 µM (inactive)"}]}
